Test results from PMC2118091 (The Journal of Experimental Medicine, 2006).

Experiments:
IgM CM-22 [1] = assay: SPR analysis of peptide binding to IgM CM-22; design: species or system mouse
complement C3 = conditions: pretreatment of rats, myocardial infarction model; cited from earlier work
IgM CM-22 [2] = assay: Titration of P8 peptide with IgM CM-22; design: species or system mouse; conditions: 200 μg IgM CM-22 (0.1–0.2 μM); unpublished data
WT mice = assay: Intestinal RI model in WT mice, pathology score; type: in vivo, mouse; conditions: final serum concentration, i.v. 5 min before reperfusion
[3] = test system: IgM, complement C4 and C3; assay: Immunohistology of IgM, C4 and C3 deposition after intestinal RI in WT mice; type: in vivo, mouse; conditions: RI-treated WT mice given P8 peptide; unpublished data

In the case of “AGCMPYVRIPTA [control peptide, reference compound]”, the “binding to IgM CM-22 surface” value (IgM CM-22 [1]; SPR, PBS, 25°C, control peptide injected at 117 μM) is reported as “no binding”.
In the case of “sCR1: specific soluble inhibitor of complement C3 (sCR1)”, the “myocardial injury” value (complement C3) is given as “dramatically reduced injury”.
For NGNNVNGNRNNN [P8 peptide], the “optimal peptide concentration sufficient to block IgM CM-22” value (IgM CM-22 [2]) was ~10 µM, the “protective concentration in intestinal RI” value (WT mice) was 10 µM and the “IgM, C4 and C3 deposition within microvilli” value [3] was “colocalized within microvilli of RI-treated WT mice but not in mice administered P8 peptide”. The “CM-22 binding affinity relative to N2” value (IgM CM-22 [1]; comparison in words, no KD printed for P8) was “higher CM-22 binding affinity relative to N2”.
